Experimental data from ChEMBL document CHEMBL5385931, “Microascones, Decahydrofluorene-Class Alkaloids from the Marine-Derived Fungus Microascus sp. SCSIO 41821” (J Nat Prod, 2024).
In brackets after ≈: the same amount, converted by molar mass.

What was measured:
Streptococcus agalactiae = test: Antibacterial activity against Streptococcus agalactiae ATCC 13813 assessed as bacterial growth inhibition by broth microdilution method; assay type: functional
[1] = tested on: Bacillus amyloliquefaciens; test: Antibacterial activity against Bacillus amyloliquefaciens GDMCC 60233 assessed as bacterial growth inhibition by broth microdilution method; assay type: functional
Candida albicans = test: Antifungal activity against Candida albicans assessed as fungal growth inhibition; assay type: functional
Pseudomonas aeruginosa = test: Antibacterial activity against Pseudomonas aeruginosa ATCC 9027 assessed as bacterial growth inhibition by broth microdilution method; assay type: functional
Staphylococcus aureus [2] = test: Antibacterial activity against methicillin-resistant Staphylococcus aureus SC41993 assessed as bacterial growth inhibition by broth microdilution method; assay type: functional
Escherichia coli = test: Antibacterial activity against Escherichia coli ATCC 25922 assessed as bacterial growth inhibition by broth microdilution method; assay type: functional
Micrococcus luteus = test: Antibacterial activity against Micrococcus luteus SC41991 assessed as bacterial growth inhibition by broth microdilution method; assay type: functional
Staphylococcus aureus [3] = test: Antibacterial activity against Staphylococcus aureus ATCC 6538 assessed as bacterial growth inhibition by broth microdilution method; assay type: functional
Paracidovorax citrulli = test: Antibacterial activity against Acidovorax citrulli SC42000 assessed as bacterial growth inhibition by broth microdilution method; assay type: functional
Streptococcus iniae = test: Antibacterial activity against Streptococcus iniae SC41992 assessed as bacterial growth inhibition by broth microdilution method; assay type: functional
Dickeya chrysanthemi = test: Antibacterial activity against Dickeya chrysanthemi SC41999 assessed as bacterial growth inhibition by broth microdilution method; assay type: functional
Bacillus subtilis = test: Antibacterial activity against Bacillus subtilis BS01 assessed as bacterial growth inhibition by broth microdilution method; assay type: functional
[4] = biological target: T1, Tyrosine-protein phosphatase non-receptor type 1 (Homo sapiens, UniProt P18031); test: Inhibition of human PTP1B
T1 sequence (P18031 whole entry): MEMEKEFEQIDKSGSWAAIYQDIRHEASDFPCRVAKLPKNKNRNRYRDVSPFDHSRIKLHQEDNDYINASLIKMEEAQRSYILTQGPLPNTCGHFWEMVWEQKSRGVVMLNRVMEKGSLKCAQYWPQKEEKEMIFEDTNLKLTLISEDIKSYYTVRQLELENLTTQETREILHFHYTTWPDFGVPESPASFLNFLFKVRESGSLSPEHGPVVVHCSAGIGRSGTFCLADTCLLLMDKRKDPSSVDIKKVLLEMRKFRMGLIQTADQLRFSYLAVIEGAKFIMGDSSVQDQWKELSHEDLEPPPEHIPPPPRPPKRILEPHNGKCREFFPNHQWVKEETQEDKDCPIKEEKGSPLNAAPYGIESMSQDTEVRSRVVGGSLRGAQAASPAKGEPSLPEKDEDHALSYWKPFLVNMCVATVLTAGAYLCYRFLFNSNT

[5] = biological target: Receptor-type tyrosine-protein phosphatase F (Homo sapiens, UniProt P10586); test: Inhibition of human LAR
[6] = biological target: Dual specificity protein phosphatase 3 (Homo sapiens, UniProt P51452); test: Inhibition of human VHR
[7] = biological target: T2, M-phase inducer phosphatase 2 (Homo sapiens, UniProt P30305); test: Inhibition of human CDC25B
T2 sequence (P30305 whole entry): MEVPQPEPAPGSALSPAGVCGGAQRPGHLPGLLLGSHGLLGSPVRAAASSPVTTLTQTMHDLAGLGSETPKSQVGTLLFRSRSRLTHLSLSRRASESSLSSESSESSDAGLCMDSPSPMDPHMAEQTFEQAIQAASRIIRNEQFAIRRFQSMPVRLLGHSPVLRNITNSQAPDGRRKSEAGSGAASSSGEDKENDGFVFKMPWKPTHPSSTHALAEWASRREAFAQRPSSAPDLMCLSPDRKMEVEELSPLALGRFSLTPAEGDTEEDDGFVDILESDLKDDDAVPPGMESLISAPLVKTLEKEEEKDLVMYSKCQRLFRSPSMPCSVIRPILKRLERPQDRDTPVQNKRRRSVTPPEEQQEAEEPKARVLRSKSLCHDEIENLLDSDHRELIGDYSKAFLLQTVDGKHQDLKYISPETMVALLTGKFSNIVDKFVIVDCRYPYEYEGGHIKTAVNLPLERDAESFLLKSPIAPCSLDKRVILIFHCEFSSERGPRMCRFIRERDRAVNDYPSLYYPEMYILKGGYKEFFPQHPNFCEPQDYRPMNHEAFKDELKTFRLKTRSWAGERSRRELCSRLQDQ

NCI-H1975 = test: Cytotoxicity against human NCI-H1975 cells assessed as cell growth inhibition by CCK8 assay
HepG2 = test: Cytotoxicity against human HepG2 cells assessed as cell growth inhibition by CCK8 assay
[8] = biological target: Receptor-type tyrosine-protein phosphatase S (Homo sapiens, UniProt Q13332); test: Inhibition of human PTPsigma
Sequence of Receptor-type tyrosine-protein phosphatase S (Q13332 whole entry): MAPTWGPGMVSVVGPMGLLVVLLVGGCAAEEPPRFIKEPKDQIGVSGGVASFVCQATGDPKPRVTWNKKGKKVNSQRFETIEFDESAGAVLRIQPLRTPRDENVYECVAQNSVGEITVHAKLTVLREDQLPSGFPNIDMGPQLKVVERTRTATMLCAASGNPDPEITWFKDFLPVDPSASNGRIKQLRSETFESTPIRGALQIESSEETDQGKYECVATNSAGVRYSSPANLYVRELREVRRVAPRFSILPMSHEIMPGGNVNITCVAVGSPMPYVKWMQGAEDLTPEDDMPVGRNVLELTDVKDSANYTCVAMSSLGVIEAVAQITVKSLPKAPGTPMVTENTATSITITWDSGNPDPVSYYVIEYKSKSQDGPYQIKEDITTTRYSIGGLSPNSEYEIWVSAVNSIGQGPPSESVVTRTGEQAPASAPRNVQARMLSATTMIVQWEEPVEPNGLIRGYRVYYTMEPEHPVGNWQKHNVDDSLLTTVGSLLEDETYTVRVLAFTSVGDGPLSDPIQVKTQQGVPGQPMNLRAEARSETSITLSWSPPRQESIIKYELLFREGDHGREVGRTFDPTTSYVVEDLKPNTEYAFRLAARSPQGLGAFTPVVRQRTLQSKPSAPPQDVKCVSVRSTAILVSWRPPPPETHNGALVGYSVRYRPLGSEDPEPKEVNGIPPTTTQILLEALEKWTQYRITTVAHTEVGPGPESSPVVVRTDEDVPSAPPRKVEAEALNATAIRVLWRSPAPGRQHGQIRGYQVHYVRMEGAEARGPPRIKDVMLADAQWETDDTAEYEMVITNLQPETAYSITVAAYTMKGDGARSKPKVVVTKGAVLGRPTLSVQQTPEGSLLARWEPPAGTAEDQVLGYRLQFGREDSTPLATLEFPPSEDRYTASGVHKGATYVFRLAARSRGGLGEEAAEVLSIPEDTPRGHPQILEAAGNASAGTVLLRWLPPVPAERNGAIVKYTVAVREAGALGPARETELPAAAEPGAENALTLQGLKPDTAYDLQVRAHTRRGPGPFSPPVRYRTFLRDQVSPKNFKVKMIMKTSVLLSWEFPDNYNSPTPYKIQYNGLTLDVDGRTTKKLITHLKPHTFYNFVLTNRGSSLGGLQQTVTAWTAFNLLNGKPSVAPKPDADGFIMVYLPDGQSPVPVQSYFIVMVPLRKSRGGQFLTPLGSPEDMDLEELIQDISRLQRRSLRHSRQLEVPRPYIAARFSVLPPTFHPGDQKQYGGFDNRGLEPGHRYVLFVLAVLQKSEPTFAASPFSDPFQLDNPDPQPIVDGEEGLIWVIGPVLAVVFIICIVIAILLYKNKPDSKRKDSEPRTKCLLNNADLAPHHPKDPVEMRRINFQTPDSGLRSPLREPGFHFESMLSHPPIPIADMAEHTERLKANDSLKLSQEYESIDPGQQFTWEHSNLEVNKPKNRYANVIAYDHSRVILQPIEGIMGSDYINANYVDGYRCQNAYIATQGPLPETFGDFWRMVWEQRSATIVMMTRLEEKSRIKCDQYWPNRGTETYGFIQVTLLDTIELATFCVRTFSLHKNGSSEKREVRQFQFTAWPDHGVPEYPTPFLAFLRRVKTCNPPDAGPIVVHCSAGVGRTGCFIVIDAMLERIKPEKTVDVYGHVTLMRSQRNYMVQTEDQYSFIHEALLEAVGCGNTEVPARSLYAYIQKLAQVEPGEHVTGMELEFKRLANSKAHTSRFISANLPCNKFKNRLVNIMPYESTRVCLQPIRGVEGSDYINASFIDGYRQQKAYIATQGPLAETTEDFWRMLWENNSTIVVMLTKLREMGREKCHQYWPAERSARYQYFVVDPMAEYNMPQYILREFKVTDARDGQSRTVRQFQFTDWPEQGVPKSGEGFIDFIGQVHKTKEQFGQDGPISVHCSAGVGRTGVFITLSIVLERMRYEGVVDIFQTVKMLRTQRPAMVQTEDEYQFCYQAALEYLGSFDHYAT

Sequence of Dual specificity protein phosphatase 3 (P51452 whole entry): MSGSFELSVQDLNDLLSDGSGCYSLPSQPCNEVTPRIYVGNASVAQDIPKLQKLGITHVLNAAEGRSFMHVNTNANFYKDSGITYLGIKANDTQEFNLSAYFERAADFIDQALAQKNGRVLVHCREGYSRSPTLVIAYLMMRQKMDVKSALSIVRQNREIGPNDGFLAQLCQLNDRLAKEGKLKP
Sequence of Receptor-type tyrosine-protein phosphatase F (P10586 whole entry): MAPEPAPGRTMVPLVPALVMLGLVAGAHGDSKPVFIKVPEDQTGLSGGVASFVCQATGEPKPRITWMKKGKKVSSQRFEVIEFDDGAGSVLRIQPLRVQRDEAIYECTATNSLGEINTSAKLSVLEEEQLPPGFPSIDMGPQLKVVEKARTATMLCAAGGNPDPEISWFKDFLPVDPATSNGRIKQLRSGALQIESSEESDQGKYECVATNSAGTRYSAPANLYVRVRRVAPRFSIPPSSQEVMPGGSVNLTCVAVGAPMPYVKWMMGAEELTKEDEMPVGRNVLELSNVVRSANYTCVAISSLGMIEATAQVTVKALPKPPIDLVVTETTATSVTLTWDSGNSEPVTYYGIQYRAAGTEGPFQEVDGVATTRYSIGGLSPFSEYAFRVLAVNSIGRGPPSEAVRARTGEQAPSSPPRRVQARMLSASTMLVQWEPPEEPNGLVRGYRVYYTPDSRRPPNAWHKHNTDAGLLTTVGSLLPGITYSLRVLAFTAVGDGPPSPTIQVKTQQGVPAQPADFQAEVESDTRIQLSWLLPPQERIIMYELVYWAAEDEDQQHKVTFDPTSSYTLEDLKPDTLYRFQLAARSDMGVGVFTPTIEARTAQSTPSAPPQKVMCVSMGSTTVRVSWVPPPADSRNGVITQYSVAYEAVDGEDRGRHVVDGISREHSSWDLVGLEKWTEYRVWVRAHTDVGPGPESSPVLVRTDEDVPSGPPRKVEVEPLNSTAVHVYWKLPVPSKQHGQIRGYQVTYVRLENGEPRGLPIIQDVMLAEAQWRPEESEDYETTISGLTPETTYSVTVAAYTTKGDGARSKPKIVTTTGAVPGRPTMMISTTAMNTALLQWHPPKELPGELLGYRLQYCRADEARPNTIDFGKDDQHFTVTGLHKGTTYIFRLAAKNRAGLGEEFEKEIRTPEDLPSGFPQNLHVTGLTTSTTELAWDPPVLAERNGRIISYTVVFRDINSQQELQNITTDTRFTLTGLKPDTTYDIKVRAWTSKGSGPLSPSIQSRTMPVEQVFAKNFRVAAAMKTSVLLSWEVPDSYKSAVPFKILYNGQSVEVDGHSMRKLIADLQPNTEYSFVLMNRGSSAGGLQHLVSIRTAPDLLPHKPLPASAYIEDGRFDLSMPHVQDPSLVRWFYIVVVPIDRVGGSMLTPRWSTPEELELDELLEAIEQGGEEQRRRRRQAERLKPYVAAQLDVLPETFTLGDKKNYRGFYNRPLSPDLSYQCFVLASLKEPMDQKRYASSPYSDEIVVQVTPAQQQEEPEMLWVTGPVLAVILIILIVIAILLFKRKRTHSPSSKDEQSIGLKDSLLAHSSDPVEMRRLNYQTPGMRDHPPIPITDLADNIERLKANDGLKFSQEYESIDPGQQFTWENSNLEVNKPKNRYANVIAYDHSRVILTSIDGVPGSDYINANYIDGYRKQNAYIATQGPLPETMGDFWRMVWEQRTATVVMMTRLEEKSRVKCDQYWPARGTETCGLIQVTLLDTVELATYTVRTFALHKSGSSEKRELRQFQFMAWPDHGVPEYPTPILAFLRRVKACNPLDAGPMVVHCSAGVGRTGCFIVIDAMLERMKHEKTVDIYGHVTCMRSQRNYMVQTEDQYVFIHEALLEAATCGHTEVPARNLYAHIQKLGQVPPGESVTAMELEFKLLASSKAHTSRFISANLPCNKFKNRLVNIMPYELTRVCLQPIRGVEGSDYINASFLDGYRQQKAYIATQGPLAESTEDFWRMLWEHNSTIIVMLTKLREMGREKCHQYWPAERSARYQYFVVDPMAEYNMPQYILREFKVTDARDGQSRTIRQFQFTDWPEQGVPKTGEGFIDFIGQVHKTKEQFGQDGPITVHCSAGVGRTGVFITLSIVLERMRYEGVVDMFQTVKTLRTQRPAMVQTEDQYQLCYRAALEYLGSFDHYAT

SMILES | MIC (Streptococcus agalactiae) | MIC [1] | MIC (Candida albicans) | MIC (Pseudomonas aeruginosa) | MIC (Staphylococcus aureus [2]) | MIC (Escherichia coli) | MIC (Micrococcus luteus) | MIC (Staphylococcus aureus [3]) | MIC (Paracidovorax citrulli) | MIC (Streptococcus iniae) | MIC (Dickeya chrysanthemi) | MIC (Bacillus subtilis) | IC50 [4] | IC50 [5] | IC50 [6] | IC50 [7] | IC50 (NCI-H1975) | IC50 (HepG2) | IC50 [8]
CO[C@@H]1/C2=C(\O)[C@H]3[C@H]4[C@H](Oc5ccc(cc5)C[C@]1(O)NC2=O)[C@H]1[C@@H](C[C@H](C)C[C@@H]1C)[C@@H]4C(C)=C1[C@@H](C)C(C)=C[C@@]13C | 0.2 µg/mL (≈ 0.357 µM) | 0.2 µg/mL (≈ 0.357 µM) | 13 µg/mL (≈ 23.2 µM) | > 100 µg/mL | 0.2 µg/mL (≈ 0.357 µM) | 0.1 µg/mL (≈ 0.179 µM) | 1.6 µg/mL (≈ 2.86 µM) | 0.4 µg/mL (≈ 0.715 µM) | > 100 µg/mL | 0.4 µg/mL (≈ 0.715 µM) | > 100 µg/mL | 0.2 µg/mL (≈ 0.357 µM) |  |  |  |  |  |  | 
CC1=C[C@@]2(C)C(=C(C)[C@H]3[C@@H]4C[C@H](C)C[C@H](C)[C@H]4[C@H]4Oc5ccc(cc5)C[C@@]5(O)C=C(C(=O)N5)C(=O)[C@H]2[C@@H]43)[C@H]1C | 0.4 µg/mL (≈ 0.758 µM) | 0.4 µg/mL (≈ 0.758 µM) | 25 µg/mL (≈ 47.4 µM) | > 100 µg/mL | 0.4 µg/mL (≈ 0.758 µM) | 0.2 µg/mL (≈ 0.379 µM) | 1.6 µg/mL (≈ 3.03 µM) | 0.8 µg/mL (≈ 1.52 µM) | > 100 µg/mL | 0.4 µg/mL (≈ 0.758 µM) | > 100 µg/mL | 0.2 µg/mL (≈ 0.379 µM) |  |  |  |  |  |  | 
O=C(O)c1cn(C2CC2)c2cc(N3CCNCC3)c(F)cc2c1=O [CIPROFLOXACIN] |  |  |  | 0.62 µg/mL (≈ 1.87 µM) |  |  |  |  |  |  |  |  |  |  |  |  |  |  | 
CC1=C[C@@]2(C)C(=C(C)[C@H]3[C@@H]4C[C@H](C)C[C@H](C)[C@H]4[C@H]4Oc5ccc(cc5)C[C@@H]5C(=O)NC(=O)[C@H]5C(=O)[C@H]2[C@@H]43)[C@H]1C | 25 µg/mL (≈ 47.4 µM) | 100 µg/mL (≈ 189 µM) | > 100 µg/mL | > 100 µg/mL | 13 µg/mL (≈ 24.6 µM) | 25 µg/mL (≈ 47.4 µM) | 25 µg/mL (≈ 47.4 µM) | 50 µg/mL (≈ 94.7 µM) | > 100 µg/mL | 12.5 µg/mL (≈ 23.7 µM) | > 100 µg/mL | 13 µg/mL (≈ 24.6 µM) | 11 µM | > 200 µM | > 200 µM | > 200 µM |  |  | 
CC(=O)N1CCN(c2ccc(OCC3COC(Cn4ccnc4)(c4ccc(Cl)cc4Cl)O3)cc2)CC1 (stereo unspecified) [KETOCONAZOLE] |  |  | 1.6 µg/mL (≈ 3.01 µM) |  |  |  |  |  |  |  |  |  |  |  |  |  |  |  | 
CC1=C2[C@@H](C)[C@@]3(C)O[C@H]3[C@]2(C)[C@H]2C(=O)[C@]34O[C@H]3[C@](O)(Cc3ccc(cc3)O[C@@H]3[C@H]5[C@@H](C[C@H](C)C[C@@H]5C)[C@H]1[C@H]32)NC4=O | 100 µg/mL (≈ 179 µM) | 100 µg/mL (≈ 179 µM) |  |  | > 100 µg/mL | 100 µg/mL (≈ 179 µM) |  | 13 µg/mL (≈ 23.2 µM) |  | 100 µg/mL (≈ 179 µM) |  | 100 µg/mL (≈ 179 µM) | 42 µM | > 200 µM | > 200 µM | > 200 µM | 33 µM | 67 µM | 
COC(=O)CC(=O)[C@@H]1[C@H]2[C@H](Oc3ccc(CC(N)=O)cc3)[C@H]3[C@@H](C[C@H](C)C[C@@H]3C)[C@@H]2C(C)=C2[C@@H](C)C(C)=C[C@@]21C | 100 µg/mL (≈ 183 µM) | 100 µg/mL (≈ 183 µM) |  |  | > 100 µg/mL | > 100 µg/mL |  | > 100 µg/mL |  | > 100 µg/mL |  | 100 µg/mL (≈ 183 µM) |  |  |  |  |  |  | 
CC1=C[C@@]2(C)C(=C(C)[C@H]3[C@@H]4C[C@H](CO)C[C@H](C)[C@H]4[C@H]4Oc5ccc(cc5)C[C@@H]5C(=O)NC(=O)[C@H]5C(=O)[C@H]2[C@@H]43)[C@H]1C |  |  |  |  | > 100 µg/mL |  |  | > 100 µg/mL |  |  |  |  | > 200 µM | > 200 µM | > 200 µM | > 200 µM | 43 µM | > 80 µM | > 200 µM
